The values that follow come from article PMC5108082, “Pharmacokinetics, toxicity, and cytochrome P450 modulatory activity of plumbagin” (BMC Pharmacology & Toxicology, 2016).

One data set relates to mice. To be noted: cited from earlier work.
A further data set is described as follows: in vivo. The following applies: male, Wistar, rat, po, 100 mg/kg. The method, then:
Pharmacokinetic investigation was performed in 4 male Wistar rats (weighing 200–350 g) following a single oral dose of 100 mg/kg body weight plumbagin (1 mL). The control group received 20 % Tween-80 (1 mL). Blood samples (500 μL each) were collected from the tail vein of each rat at 0, 1, 2, 3, 5, 8, 24, 48, and 72 h after dosing. Plasma was separated from whole blood samples through centrifugation at 3000 × g for 10 min.
Concentrations of plumbagin in plasma and urine samples collected from all animals were measured using liquid chromatographic-mass spectrometry (LC-MS/MS) according to the previously described method with modifications. The limits of quantification (LOQ) and detection (LOD) for plumbagin were 5 and 2 ng/mL plasma, respectively. Recovery of the compound in plasma after sample preparation procedure was between 82 and 92 %. The assay intra- and inter-day coefficients of variation (% CV) were 0.7–4.7 % and 3.9–8.3 %, respectively. In brief, plasma sample (100 μL) was mixed with 10 ng/mL honokiol (5 μL) and ethyl acetate (1 mL) and centrifuged at 12,000 × g for 15 min. The upper layer was transferred to a new tube and evaporated to dryness under nitrogen flow. The dried residue was reconstituted with 100 μL of the mobile phase and a 5 μL aliquot was injected onto the LC–MS/MS. The samples were collected from the metabolic cages at 24, 48, 72, 96, and 120 h. All were centrifuged at 1500 × g for 10 min and the supernatant (100 μL) was extracted with ethyl acetate (1 mL). The extract was dried and the residue was reconstituted with 100 μL of the mobile phase and a 5 μL aliquot was injected onto the LC–MS/MS.
The LC-MS/MS system used consists of Agilent 1100 Separation Module (Agilent Technologies, CA, USA) solvent and sample delivery, Av QTRAP 5500 Triple Quadrupole Mass Spectrometer (AB Sciex, Foster City, CA, USA) equipped with CID, and Multiple Reactions Monitoring (MRM). Mass spectrometric analysis was performed in the negative-ion mode (ESI). The following parameters of the turbo ion spray were used: ion spray voltage = −4500 V; the ion source gas 1 (GS1), gas 2 (GS2), curtain gas (CUR) and collision gas (CAD) were 50, 60, 25 and 5, respectively; and the desolvation gas (nitrogen) heated to 500 °C. Separation was performed using Hypersil gold reversed-phase C18 column (50 mm × 4.6 mm i.d., 5 μM: Thermo Scientific, Fremont, CA, USA) with the mobile phase consisting of a mixture of (A) water containing 0.1 % formic acid and (B) 100 % methanol, running with gradient mode at the flow rate of 0.6 mL/min at 25 °C (Table 1). On the basic of the full-scan mass spectra of each analyze, the most abundant ions were selected and the mass spectrometer was set to monitor the transitions of the precursors to the product ions as follows: m/z 187– >159 for plumbagin, and 265– >224 for honokiol (internal standard). The system was controlled by Analyst^TM software (AB Sciex, Foster City, CA, USA).
Pharmacokinetic parameters were determined using a non-compartmental analysis using WinNonLin^TM software (version 6.3, Pharsights, Certara, USA). Concentrations of drugs lower than the limit of quantification (LOQ) were expressed as zero (undetectable). The Cmax (maximum concentration); tmax (time of maximum concentration) were determined by direct inspection of the plasma concentration–time data. […] The extrapolated AUC from the last sampling time to infinity was estimated from Ct/elimination rate constant (λz). λz was calculated from at least five concentration–time points of elimination phase. Apparent oral clearance (CL/F) was calculated as dose/AUC0−∞. Volume of distribution (Vz/F) was calculated as CL/F/z, and the terminal half-life (t1/2z) was calculated as 0.693/λz. Mean residence time (MRT) was calculated from the ratio of AUMC0-α)/AUC0−∞.

Data set [1] has as its system human colon epithelial cell monolayer Caco-2. The following applies: cited from earlier work.
Another data set relates to parasitemia. Further details: method as in PMID 24410949. The following applies: 25 mg/kg body weight given for 4 days; cited from earlier work.

Regarding `CC1=CC(=O)c2c(O)cccc2C1=O` [plumbagin, 5-hydroxy-2-methyl-1,4-naphthoquinone], in the data set on mice (mice, for 14 days, ref our previous study), the “maximal tolerated dose, subacute toxicity testing” value is 25 mg/kg body weight. Moreover, the “types of toxicity reported” value with mice (mice) is reported as “diarrhea, skin rashes, leukocytosis, increased serum phosphatase levels”. Besides, the “maximal tolerated dose, acute toxicity testing” value in the data set on mice (mice, ref our previous study) is listed as 100 mg/kg body weight. In addition, the hepatotoxicity entry with mice (mouse, in vivo) was “marked increased plasma ALT and AST levels”. In the data set “in vivo”, this compound gave a total exposure AUC(0-inf) of 6710 ng·h/mL, an AUC(0-t) of 6510 ng·h/mL, a CL/F of 250 mL/min/kg and a Cmax of 460 ng/mL. In the data set “in vivo”, the Tmax amounted to 5 h, the Vd/F came out at 220 L/kg, the “t1/2 (elimination half-life)” value is 9.63 (3.04) h and the “time up to which detected in systemic circulation” value stood at 48 h. Besides, the “time up to which detected in urine (complete elimination in urine)” value in “in vivo” is on record as 96 h. Besides, the “plumbagin excreted in urine” value in the data set “in vivo” (72 h) is listed as 15 (9) μg. The half-life in the data set “in vivo” (t1/2 (elimination half-life)) was about 9.6 h. In data set [1] (Caco-2), the “influence of efflux protein on permeability” value is on record as “no influence of efflux protein” and the permeability result was “moderate”. For the same compound, the transport mechanism result in data set [1] was “passive transport”. In addition, the “antimalarial activity in vivo (reduction of parasitemia, prolongation of survival time)” value in the data set with parasitemia was “weak”.
